Laboratory results published in patent publication US11207338B2, “Composition for preventing and treating osteoporosis, comprising dihydrophaseic acid 3′-O-β-D-glucopyranoside isolated from lycium root bark extracts” (DONG WOO DANG CO., LTD, priority 2015, dated 2021).

How the values were obtained:
C3H10T1/2 cells [1] = experiment: Cell proliferation assay (EZ-Cytox, water-soluble tetrazolium salt); format: cell-based, mouse; conditions: 5 μg/mL compared with 1 and 10 μg/ml
Description: (§1) C3H10T1/2 cells which are mouse mesenchymal stem cells and MC3T3-E1 cells which are pre-osteoblasts were cultured in Basal Medium Eagle (BME) medium supplemented with 10% fetal bovine serum, 1 mM sodium pyruvate, 100 units/L penicillin and 100 mg/L streptomycin and α-minimal essential medium (α-MEM) at 37° C. under 5% CO2.
(§2) The D3G fraction layer obtained in Examples 1 and 2 was dissolved in sterilized distilled water and divided into three groups of concentrations of 1 μg/ml, 5 μg/ml and 10 μg/ml, and then added them to C3H10T1/2 cells and MC3T3-E1 cells respectively and further cultured for 48 hours. Cells cultured in the absence of the D3G fraction layer were used as a control.
Cell proliferation assays were performed using a EZ-Cytox Enhanced Cell Viability Assay Kit product with water-soluble tetrazolium salt.
Specifically, C3H10T1/2 cells and MC3T3-E1 cells (3×10^3 cells/well) were inoculated into 96-well plates and cultured in growth medium at 37° C. for 24 hours in 5% CO2, and then the Lycium root bark extracts of three concentrations (1 μg/ml, 5 μg/ml and 10 μg/ml) were added to the cells and cultured for 2 days. […]
(§3) Statistical analysis was performed by student's t-test for the control group without extract treatment and for each treatment group with extract treatment, and expressed as *p<0.05 depending on significance level.

MC3T3-E1 cells [2] = experiment: as above; format: cell-based; conditions: differentiation induced MC3T3-E1 cells; 5 μg/mL compared with 1 and 10 μg/ml
Description: as §1
(§4) In the case of MC3T3-E1 cells, ascorbic acid (50 μg/ml) and β-Glycerophosphate (10 mM), which are the osteoblast differentiation-inducing agents, were added, and then differentiation was induced for 3 days before treatment with the D3G fraction layer.
as §2
Cell proliferation assays were performed using a EZ-Cytox Enhanced Cell Viability Assay Kit product with water-soluble tetrazolium salt. […]
as §3

C3H10T1/2 cells [3] = experiment: Analysis of ALP activity; format: cell-based, mouse
Description: as §1, §2
(§5) After culturing the D3G-treated experimental group treated with the three kinds of concentrations (1 μg/ml, 5 μg/ml, 10 μg/ml) and the control group for 48 hours, ALP activity of cells was measured. ALP activity was measured using a ALP Assay Kit.
Specifically, after washing the cells with the physiological saline, the cell lysed with cytolytic agent was treated with p-nitrophenyl phosphate which is a substrate of ALP and then cultured at 37° C. for 1 hour. Thereafter, 0.5N NaOH which is a reaction stop solution was added, and then the absorbance was measured at a wavelength of 405 nm. […]

[4] = tested on: mixed culture of MC3T3-E1 pre-osteoblasts and mouse monocytes; experiment: Mixed culture of osteoblast and osteoclast (ALP and TRAP activity); format: cell-based; conditions: MC3T3-E1 plus monocytes mixed culture; 5 μg/mL
Description: In order to assess the maintenance of bone remodeling under the condition closer to the in vivo condition through the balanced action between osteogenesis and bone resorption by osteoblasts and osteoclasts, MC3T3-E1(2×10^4 cells/well), which are pre-osteoblasts, and monocytes (4×10^4 cells/well) obtained by extracting stem cells from the femoral region of the mouse and culturing them were mixed and cultured.
To the mixed culture of osteoblasts and osteoclasts, ascorbic acid (50 μg/ml) and β-glycerophosphate (10 mM) which are osteoblast differentiation-inducing agents were added to induce differentiation for 3 days and then treated with D3G fraction layer. After adding the D3G fraction layer (5 μg/mL) to the mixed culture solution, the activity of ALP which is an osteoblast differentiation marker and the activity of TRAP which is an osteoclast differentiation marker were measured. Statistical analysis was performed by student's t-test and expressed as *p<0.05 and **p<0.01 depending on significance level.

MC3T3-E1 cells [5] = experiment: Expression level of osteoblast differentiation gene markers (real-time PCR); format: cell-based; conditions: differentiation-induced MC3T3-E1 cells; 5 μg/ml; relative to Gapdh
Description: as §4
The change in the expression levels of mRNAs of osteoblast differentiation gene markers, Alp, Runx2, and Bglap (Osteocalcine) among bone remodeling-related gene markers was confirmed by a quantitative reverse transcription-PCR.
After harvesting the cells, total RNA was isolated using Trizol, and in order to remove genomic DNA, DNase I was reacted at room temperature for 15 minutes and then treated with EDTA to inactivate DNase I.
Thereafter, the reverse transcription reaction was induced by using oligo dT primer as a primer to synthesize cDNA, and then real-time PCR was performed using sequence specific primers of each gene and SYBR Green. The analysis of the expression level was performed by using the relative quantification method for the target gene using the Gapdh gene as a control. The gene-specific primer sequence information for identifying the level of expression of the gene markers used to determine the degree of differentiation of osteoblasts and osteoclasts is shown in Table 1 below.
Expression levels of the three gene markers, Alp, Runx2, and Bglap related to bone remodeling for the D3G in differentiation-induced MC3T3-E1 cells were compared by the method as described above, and the results are shown in FIGS. 7a, 7b, and 7c. Statistical analysis was performed by student's t-test and expressed as *p<0.05 depending on significance level.

[6] = tested on: monocytes isolated from mouse bone marrow; experiment: Osteoclast differentiation (TRAP activity and TRAP staining); format: cell-based; conditions: mouse monocytes with M-CSF and RANKL; 5 μg/ml; treated vs untreated
Description: Osteoclasts was isolated from primary monocytes, which are the […] of osteoclasts from the bone marrow of a 6 week old mouse, and cultured them. After confirming that the osteoclasts isolated from mouse stem cells were monocytes isolated from the bone marrow of the mouse through FACS (FIG. 6a) (monocyte positive marker antibody: CD11b), an experiment was performed. Separated mouse monocytes were treated with 30 ng/ml M-CSF and 50 ng/ml LANKL, which are osteoclast differentiation-inducing agents, and differentiation was induced for 3 days before treatment with D3G fraction layer.
Osteoclasts are derived from stem cells and are responsible for bone resorption that destroys aged bone wherein bone remodeling is maintained through the balanced action of osteogenesis by osteoblasts and bone resorption by osteoclasts. To the monocytes extracted and cultured from the stem cells of the femoral region of the mouse, 30 ng/mL M-CSF and 50 ng/mL RANKL were added together and then cultured for 5 days. Thereafter, the activity of TRAP which is an osteoclast differentiation marker was measured.
After washing the cells with physiological saline, TRAP activity was measured by absorbance at a wavelength of 405 nm using an Acid-Phosphatase Kit, and after staining, the osteoclasts were observed through a microscope.

MC3T3-E1 cells [7] = experiment: Analysis of mineralization action (alizarin red S staining); format: cell-based; conditions: 5 μg/mL, 3 weeks, vs control
Description: as §4
The analysis of mineralization action of the cells was performed after incubation of the experimental group treated with 5 μg/ml of the D3G and the control group for 3 weeks. The analysis of mineralization action was performed using the Alizarlin red S staining method.

MC3T3-E1 cells [8] = experiment: Analysis of ALP activity; format: cell-based
Description: as §1
In the case of MC3T3-E1 cells, ascorbic acid (50 μg/ml) and β-Glycerophosphate (10 mM), which are the osteoblast differentiation-inducing agents, were added, and then differentiation was induced for 3 days before treatment with the D3G fraction layer. […]
as §5
Specifically, after washing the cells with the physiological saline, the cell lysed with cytolytic agent was treated with p-nitrophenyl phosphate which is a substrate of ALP and then cultured at 37° C. for 1 hour. Thereafter, 0.5N NaOH which is a reaction stop solution was added, and then the absorbance was measured at a wavelength of 405 nm.
The effect of the cell ALP activity of the Lycium root bark extract in C3H10T1/2 cells and differentiation induced MC3T3-E1 cells was analyzed by the method as described above, and the results are shown in FIG. 4. […]

In the case of `CC(=C/C(=O)O)/C=C/[C@]1(O)[C@]2(C)CO[C@@]1(C)C[C@@H](OC1OC(CO)C(O)C(O)C1O)C2` (stereo partly drawn) [D3G, dihydrophaseic acid 3′-O-β-D-glucopyranoside], the “cell proliferation promoting effect at the optimal concentration” value (C3H10T1/2 cells [1]) is reported as “highest”, the “cell proliferation promoting effect at the optimal concentration” value (MC3T3-E1 cells [2]) is reported as “highest” and the “enhancing effect of cell ALP activity at 5 μg/mL” value (C3H10T1/2 cells [3]; 5 μg/mL compared with 1 and 10 μg/ml) is reported as “best effect”. The ALP activity (C3H10T1/2 cells [3]; 1, 5 and 10 μg/ml, 48 hours, vs control) was “increase ALP activity”, the “ALP activity in mixed culture” value [4] was “increase” and the “TRAP activity in mixed culture” value [4] was “increase”. The “expression level of Alp mRNA” value (MC3T3-E1 cells [5]) was “increased”, the “expression level of Bglap (Osteocalcin) mRNA” value (MC3T3-E1 cells [5]) was “increased” and the “expression level of Runx2 mRNA” value (MC3T3-E1 cells [5]) was “increased”. For the same molecule, the “TRAP activity (osteoclast differentiation marker)” value [6] was “no significant change”, the “TRAP staining of differentiated osteoclast” value [6] was “no significant change” and the “mineralization (alizarin red S staining)” value (MC3T3-E1 cells [7]) was “increase mineralization”. The “enhancing effect of cell ALP activity at 5 μg/mL” value (MC3T3-E1 cells [8]; MC3T3-E1 cells, 5 μg/mL compared with 1 and 10 μg/ml) was “best effect” and the ALP activity (MC3T3-E1 cells [8]; differentiation induced MC3T3-E1 cells, 1, 5 and 10 μg/ml, 48 hours, vs control) was “increase ALP activity”.
